# Source: patent publication US20260026501A1, “AGROCHEMICAL COMPOSITION OF SDHI FUNGICIDES” (ADAMA MAKHTESHIM LTD., priority 2022, published 2026)
# Test: Concentration of the actives by HPLC after storage (storage stability)
# Format: physicochemical
# Experimental: The assay of the two Ai's was checked by HPLC Method.
# The analytical method included: • 1. Preparation of standard solution. • 2. Sample solution preparation: 200 mg sample was measured in triplicates into 50 ml volumetric flask. • 3. Acetonitrile was added. • 4. Injection of the standard and sample solutions in room temperature.
# The concentration was calculated by: […]
# The samples were checked for assay after 11 days and 14 days at room temperature and at 54° C. The AI % should not decrease more than 5% after the accelerated stability at 54° C.
# The samples were checked for assay after 11 days and 14 days at room temperature and at 54° C.
# The AI % should not decrease more than 5% after the accelerated stability at 54° C.
# [1] = 11 days after EC preparation (54° C.)
# [2] = 11 days after EC preparation (r.t)
# [3] = 14 days after EC preparation (54° C.)
# [4] = 14 days after EC preparation (r.t)
SMILES,Concentration of the active in formulation A [1] [µg/mL],Concentration of the active in formulation A [2] [µg/mL],Concentration of the active in formulation A [3] [µg/mL],Concentration of the active in formulation A [4] [µg/mL],Concentration of the active in formulation B (after 14 days (54° C.)) [µg/mL],Concentration of the active in formulation B (after 14 days (r.t)) [µg/mL],Concentration of the active in formulation A (after EC preparation) [µg/mL],Concentration of the active in formulation B (after EC preparation) [µg/mL]
"OC(Cc1ccccc1Cl)(Cn1nc[nH]c1=S)C1(Cl)CC1 (racemic) [Prothioconazole, 2-[(2RS)-2-(1-chlorocyclopropyl)-3-(2-chlorophenyl)-2-hydroxypropyl]-2H-1,2,4-triazole-3(4H)-thione]",14900,15100,14700,14800,14700,14500,15200,15300
"Cn1cc(C(=O)Nc2ccccc2-c2cc(F)c(F)c(F)c2)c(C(F)F)n1 [Fluxapyroxad, 3-(difluoromethyl)-1-methyl-N-(3′,4′,5′-trifluorobiphenyl-2-yl)pyrazole-4-carboxamide]",7500,7500,7500,7400,9000,8800,7500,8900
